These results are taken from patent US7390642B2, “Salutaridinol 7-O-acetyltransferase and derivatives thereof” (priority 2001, dated 2008).

For data set [1], the target named is T1, salutaridinol 7-O-acetyltransferase (Papaver somniferum, UniProt Q94FT4).
The target in data set [2] is T1, salutaridinol 7-O-acetyltransferase. In words: Inhibition of enzyme activity by covalent modification with diethylpyrocarbonate. Format: biochemical, P. somniferum. Also noted: The full-length cDNA generated by RT-PCR was ligated into pFastBac HTa; His tag (N); made in house; host or cells: Spodoptera frugiperda Sf9 cells (baculovirus, pFastBac HTa); purified from culture medium. The text has this:
Sequence Analysis of pSalAT: Translation of the complete nucleotide sequence of salAT yielded a polypeptide of 474 amino acids containing no apparent signal peptide. This is consistent with the cytosolic localization of the enzyme activity (6). The enzyme activity is also operationally found associated with the cytosolic fraction of exuded latex. The salAT amino acid sequence contains residues conserved in other plant acetyltransferases as indicated by the black boxes in FIG. 2 (SEQ. IDs No.7 to 12). The longest contiguous region of conserved amino acids are the five residues DFGWG near the carboxy terminus that were used for primer design and are indicated by an arrow. Conserved histidine and aspartate residues (HXXXD; denoted by # in FIG. 2) thought to be involved in catalysis as characterized by x-ray crystallography for the bacterial enzymes chloramphenicol acetyltransferase and dihydrolipoamide acetyltransferase are also present in salutaridinol 7-O-acetyltransferase (23,24).

The test system of data set [3] is CC(=O)SCCNC(=O)CCNC(=O)[C@H](O)C(C)(C)COP(=O)(O)OP(=O)(O)OC[C@H]1O[C@@H](n2cnc3c(N)ncnc32)[C@H](O)[C@@H]1OP(=O)(O)O. In words: purified protein, by the assay type.
For data set [4], the system named is COC1=C[C@]23CCN(C)[C@H](Cc4ccc(OC)c(O)c42)C3=C[C@@H]1O. In words: purified protein, by the assay type. Particulars: other: fixed concentration of acetyl CoA of 30 mm; recombinant enzyme.
The mark [5] stands for this setting: standard assay conditions, acetylation of salutaridinol.

By inhibition is commonly meant the relative decrease from the control value, in per cent. Higher therefore signals a response far below the control. Broadly, the Km is the substrate concentration at which the rate is half of its maximum. One may read the Vmax as the rate approached at saturating substrate.

Read-outs that look alike come from different tables or passages of the source.

`COC1=C[C@]23CCN(C)[C@H](Cc4ccc(OC)c(O)c42)C3=C[C@@H]1O` [7(R)-salutaridinol]: in data set [1] (recombinant enzyme, acetyl CoA), the “acetylation at C-7 by the recombinant enzyme (substrate acceptance)” value (“acetylation” for short) is listed as “not”.
For the molecule `CCOC(=O)OC(=O)OCC` [DEPC, diethylpyrocarbonate], in data set [2], the “effect of carbethoxylation of histidine residues on enzyme activity” value is on record as “loss of enzyme activity”. This molecule also registered an inhibition at 3000 µM in data set [2] (3 mM DEPC) of 50%. The same molecule had an inhibition at 5000 µM in data set [2] (5 mM DEPC) of 92%. In data set [2] (5 mM DEPC after preincubation of the enzyme with 30 mM acetyl CoA), the inactivation of enzyme came to 46%.
Take `[3H]C1(O)C=C2C3Cc4ccc(OC)c(O)c4C2(C=C1OC)CCN3C` (centres unmarked) [[7-^3H]salutaridinol]: the “conversion into a product that co-migrated during TLC with authentic thebaine standard” value in data set [1] (radioassay of pure, recombinant enzyme) is on record as 100%.
For the molecule `CC[C@]12C=CCN3CC[C@@]4(c5ccc(OC)cc5N(C)[C@H]4[C@@](O)(C(=O)OC)[C@@H]1O)[C@@H]32` [deacetylvindoline], in data set [1] (recombinant enzyme, acetyl CoA), the “acetylation” value is “not”.
Take `CN1CC[C@]23c4c5ccc(O)c4O[C@H]2[C@@H](O)C=C[C@H]3[C@H]1C5` [morphine]: the “acetylation” value in data set [1] is “not”.
On to `COC1=C[C@]23CCN(C)[C@H](Cc4cc5c(cc42)OCO5)C3=C[C@@H]1O` [nudaurine], for which the “Vmax (nudaurine)” value in data set [1] (nudaurine as substrate) is 19 pmol/s. Besides, the Km in data set [1] (read-out: apparent Km nudaurine, at 30 mM acetyl CoA) stood at 23 µM. For the same molecule, the “acetylation” value in data set [1] (recombinant enzyme, acetyl CoA) was “acetylated”.
In the case of `COC1=C[C@]23CCN(C)[C@H](Cc4ccc(OC)c(O)c42)C3=CC1=O` [salutaridine], the “acetylation” value in data set [1] (recombinant enzyme, acetyl CoA) is on record as “not”.
As to `COC1=C[C@]23CCN(C)[C@H](Cc4ccc(OC)c(O)c42)C3=C[C@@H]1O` [salutaridinol, 7(S)-salutaridinol], the “ratio kcat/Km (salutaridinol):kcat/Km(nudaurine)” value in data set [1] (preference of salutaridinol over nudaurine, factor) is reported as 3.3. In addition, the “acetylation” value in data set [1] (recombinant enzyme, acetyl CoA, listed as 7(S)-salutaridinol) is recorded as “acetylated”.
With “salutaridinol 7-O-acetyltransferase (Papaver somniferum)”, the Michaelis constant (Km) in data set [3] (other: at 10 mM nudaurine) worked out at 106 µM; in data set [3] (other: fixed concentration of salutaridinol of 10 mM, recombinant enzyme), 54 µM; in data set [4], 9 µM. Also, in data set [4], the maximum rate (Vmax) worked out at 25 pmol/s.

B1: recombinant enzyme: P. somniferum salutaridinol 7-O-acetyltransferase, SEQ. ID No. 14, 474 amino acids (protein, listed as Papaver somniferum)
chain: MATMYSAAVEVISKETIKPTTPTPSQLKNFNLSLLDQCFPLYYYVPIILFYPATAANSTGSSNHHDDLDLLKSSLSKTLVHFYPMAGRMIDNILVDCHDQGINFYKVKIRGKMCEFMSQPDVPLSQLLPSEVVSASVPKEALVIVQVNMFDCGGTAICSSVSHKIADAATMSTFIRSWASTTKTSRSGGSTAAVTDQKLIPSFDSASLFPPSERLTSPSGMSEIPFSSTPEDTEDDKTVSKRFVFDFAKITSVREKLQVLMHDNYKSRRQTRVEVVTSLIWKSVMKSTPAGFLPVVHHAVNLRKKMDPPLQDVSFGNLSVTVSAFLPATTTTTTNAVNKTINSTSSESQVVLHELHDFIAQMRSEIDKVKGDKGSLEKVIQNFASGHDASIKKINDVEVINFWISSWCRMGLYEIDFGWGKPIWVTVDPNIKPNKNCFFMNDTKCGEGIEVWASFLEDDMAKFELHLSEILELI
Take B1: in data set [1] (setting [5]), the pH optimal range is listed as 7-9 and the temperature optimum came out at 47 °C.
